Measurements taken from patent US20220009920A1 (GB005, Inc., priority 2020, published 2022).

Legend:
Experiment in all cases: Large panel kinase profiling
Assay type in all cases: biochemical
Conditions in all cases: 1 μM test article, 1 mM ATP
ERBB2/HER2 = ERBB2/HER2 (Homo sapiens, UniProt P04626)
How it was run: (§1)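 Steps: combine kinase, CSox-Sensor substrate, 1 mM ATP and 1 μM compound; seal and incubate at 30° C.; read top fluorescence kinetically each minute, Ex 360 nm/Em 485 nm.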

PDGFRB = PDGFRB (Homo sapiens, UniProt P09619)
How it was run: as §1

MAPK7/ERK5 = target: T1, MAPK7/ERK5 (Homo sapiens, UniProt Q13164)
T1 construct: AssayQuant Technologies, Inc. (service provider)
T1 sequence (Q13164 whole entry): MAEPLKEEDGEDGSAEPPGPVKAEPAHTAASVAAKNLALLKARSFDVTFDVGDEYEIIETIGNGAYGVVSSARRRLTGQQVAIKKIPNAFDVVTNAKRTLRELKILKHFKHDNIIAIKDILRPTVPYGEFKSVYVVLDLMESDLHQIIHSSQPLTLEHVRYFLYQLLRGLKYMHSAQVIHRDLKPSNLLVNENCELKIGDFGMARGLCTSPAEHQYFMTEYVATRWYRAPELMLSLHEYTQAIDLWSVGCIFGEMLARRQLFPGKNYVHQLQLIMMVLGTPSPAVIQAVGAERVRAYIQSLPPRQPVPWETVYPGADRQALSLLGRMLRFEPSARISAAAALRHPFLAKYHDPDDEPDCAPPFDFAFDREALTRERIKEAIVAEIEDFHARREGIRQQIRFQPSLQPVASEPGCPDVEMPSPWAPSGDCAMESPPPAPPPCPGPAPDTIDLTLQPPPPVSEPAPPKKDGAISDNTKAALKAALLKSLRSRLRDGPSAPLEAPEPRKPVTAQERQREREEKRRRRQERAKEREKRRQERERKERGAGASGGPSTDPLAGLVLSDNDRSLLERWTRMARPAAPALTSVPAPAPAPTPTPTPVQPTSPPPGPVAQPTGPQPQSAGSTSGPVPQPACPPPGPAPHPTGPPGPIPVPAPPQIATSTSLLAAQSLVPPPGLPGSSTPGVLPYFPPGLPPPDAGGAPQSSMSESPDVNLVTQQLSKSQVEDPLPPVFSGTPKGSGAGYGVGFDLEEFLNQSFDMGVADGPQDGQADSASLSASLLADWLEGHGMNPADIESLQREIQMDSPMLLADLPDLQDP
How it was run: as §1

CLK4 = target: T2, CLK4 (Homo sapiens, UniProt Q9HAZ1)
T2 construct: AssayQuant Technologies, Inc. (service laboratory)
T2 sequence (Q9HAZ1 whole entry, species assumed): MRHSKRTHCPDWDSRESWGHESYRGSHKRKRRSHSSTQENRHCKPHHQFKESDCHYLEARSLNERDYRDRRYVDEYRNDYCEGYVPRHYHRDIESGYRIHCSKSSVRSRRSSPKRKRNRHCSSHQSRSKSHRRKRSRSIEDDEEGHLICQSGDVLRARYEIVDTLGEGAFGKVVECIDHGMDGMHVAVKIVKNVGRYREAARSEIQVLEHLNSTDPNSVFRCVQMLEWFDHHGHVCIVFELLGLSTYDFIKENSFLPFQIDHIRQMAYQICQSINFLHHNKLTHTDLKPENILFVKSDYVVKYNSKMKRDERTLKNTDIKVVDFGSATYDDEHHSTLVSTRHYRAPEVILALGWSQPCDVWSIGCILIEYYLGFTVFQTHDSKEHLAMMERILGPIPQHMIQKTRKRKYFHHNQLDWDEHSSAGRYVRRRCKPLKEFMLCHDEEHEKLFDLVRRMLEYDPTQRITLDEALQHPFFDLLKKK
How it was run: as §1

HIPK3 = target: T3, HIPK3 (Homo sapiens, UniProt Q9H422)
T3 construct: AssayQuant Technologies, Inc. (service provider)
T3 sequence (Q9H422 whole entry, species assumed): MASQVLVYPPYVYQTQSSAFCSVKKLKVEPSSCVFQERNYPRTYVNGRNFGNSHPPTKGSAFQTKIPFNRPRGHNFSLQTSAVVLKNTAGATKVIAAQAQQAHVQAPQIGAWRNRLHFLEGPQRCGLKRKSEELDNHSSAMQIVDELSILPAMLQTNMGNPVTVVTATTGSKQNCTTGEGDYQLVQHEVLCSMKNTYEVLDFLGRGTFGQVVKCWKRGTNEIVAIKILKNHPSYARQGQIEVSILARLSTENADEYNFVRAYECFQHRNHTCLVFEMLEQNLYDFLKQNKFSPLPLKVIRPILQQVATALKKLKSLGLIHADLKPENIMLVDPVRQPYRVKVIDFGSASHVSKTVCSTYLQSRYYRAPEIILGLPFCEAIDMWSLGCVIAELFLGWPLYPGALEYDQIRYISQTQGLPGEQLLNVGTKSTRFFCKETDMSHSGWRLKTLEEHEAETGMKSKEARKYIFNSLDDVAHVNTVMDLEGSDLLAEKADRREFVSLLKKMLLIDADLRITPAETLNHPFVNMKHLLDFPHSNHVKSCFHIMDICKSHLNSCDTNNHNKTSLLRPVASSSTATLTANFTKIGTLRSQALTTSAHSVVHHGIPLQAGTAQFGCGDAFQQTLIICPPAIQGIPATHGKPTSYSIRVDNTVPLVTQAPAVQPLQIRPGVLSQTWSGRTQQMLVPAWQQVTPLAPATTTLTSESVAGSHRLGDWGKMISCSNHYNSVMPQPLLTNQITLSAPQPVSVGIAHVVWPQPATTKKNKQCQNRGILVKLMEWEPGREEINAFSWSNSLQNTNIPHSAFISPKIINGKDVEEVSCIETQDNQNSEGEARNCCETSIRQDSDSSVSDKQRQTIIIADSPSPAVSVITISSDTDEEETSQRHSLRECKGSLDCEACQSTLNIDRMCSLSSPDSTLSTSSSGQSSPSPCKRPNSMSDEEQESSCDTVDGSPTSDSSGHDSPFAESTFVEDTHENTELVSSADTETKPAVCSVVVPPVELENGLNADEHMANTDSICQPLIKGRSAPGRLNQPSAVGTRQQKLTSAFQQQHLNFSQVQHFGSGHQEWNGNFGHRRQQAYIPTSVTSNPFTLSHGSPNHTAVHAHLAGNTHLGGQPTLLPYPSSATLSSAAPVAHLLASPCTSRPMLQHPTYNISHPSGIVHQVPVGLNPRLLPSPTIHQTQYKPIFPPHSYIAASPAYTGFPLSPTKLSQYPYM
How it was run: as §1

MERTK/MER = target: T4, MERTK/MER (Homo sapiens, UniProt Q12866)
T4 construct: AssayQuant Technologies, Inc. (assay service)
T4 sequence (Q12866 21-999): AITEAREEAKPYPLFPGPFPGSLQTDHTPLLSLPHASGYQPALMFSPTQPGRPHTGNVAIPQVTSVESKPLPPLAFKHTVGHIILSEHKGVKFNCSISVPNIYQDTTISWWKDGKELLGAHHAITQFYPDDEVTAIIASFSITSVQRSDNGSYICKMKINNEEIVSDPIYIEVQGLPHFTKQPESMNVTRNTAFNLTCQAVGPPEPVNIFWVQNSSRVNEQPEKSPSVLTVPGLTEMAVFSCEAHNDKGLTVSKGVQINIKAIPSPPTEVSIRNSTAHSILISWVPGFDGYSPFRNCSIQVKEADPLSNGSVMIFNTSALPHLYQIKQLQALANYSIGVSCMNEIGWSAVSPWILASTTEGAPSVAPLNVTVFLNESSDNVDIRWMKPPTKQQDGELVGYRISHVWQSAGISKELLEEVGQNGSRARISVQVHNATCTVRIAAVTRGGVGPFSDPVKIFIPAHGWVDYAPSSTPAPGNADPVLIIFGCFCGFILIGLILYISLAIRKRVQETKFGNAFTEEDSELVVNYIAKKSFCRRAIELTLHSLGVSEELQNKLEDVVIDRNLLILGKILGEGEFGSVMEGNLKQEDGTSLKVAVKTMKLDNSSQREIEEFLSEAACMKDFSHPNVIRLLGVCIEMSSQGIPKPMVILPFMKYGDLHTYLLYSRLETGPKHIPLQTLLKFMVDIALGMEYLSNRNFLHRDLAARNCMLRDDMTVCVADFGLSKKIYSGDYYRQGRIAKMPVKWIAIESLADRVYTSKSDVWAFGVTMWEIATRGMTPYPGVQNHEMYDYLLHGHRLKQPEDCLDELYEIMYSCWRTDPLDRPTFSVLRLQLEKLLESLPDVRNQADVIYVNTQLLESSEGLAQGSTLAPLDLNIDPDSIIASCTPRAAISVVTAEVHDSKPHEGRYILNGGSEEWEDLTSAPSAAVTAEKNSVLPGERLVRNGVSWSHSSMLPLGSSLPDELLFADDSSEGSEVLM
How it was run: as §1

AKT1 = AKT1 (Homo sapiens, UniProt P31749)
Chain of AKT1 (P31749 whole entry): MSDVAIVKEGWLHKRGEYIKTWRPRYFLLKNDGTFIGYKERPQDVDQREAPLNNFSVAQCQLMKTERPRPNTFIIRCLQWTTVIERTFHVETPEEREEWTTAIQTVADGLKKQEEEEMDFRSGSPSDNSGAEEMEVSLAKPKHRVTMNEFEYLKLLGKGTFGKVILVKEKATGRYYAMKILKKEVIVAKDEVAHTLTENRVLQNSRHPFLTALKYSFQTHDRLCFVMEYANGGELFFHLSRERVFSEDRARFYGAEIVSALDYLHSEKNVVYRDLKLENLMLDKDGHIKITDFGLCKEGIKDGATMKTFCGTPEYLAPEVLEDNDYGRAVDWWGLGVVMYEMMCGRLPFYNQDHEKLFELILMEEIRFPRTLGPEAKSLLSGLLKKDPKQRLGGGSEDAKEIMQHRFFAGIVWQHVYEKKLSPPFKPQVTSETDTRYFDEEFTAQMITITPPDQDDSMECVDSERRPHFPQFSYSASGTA
How it was run: as §1

FGFR1 = FGFR1 (Homo sapiens, UniProt P11362)
Chain of FGFR1 (P11362 22-822, species assumed): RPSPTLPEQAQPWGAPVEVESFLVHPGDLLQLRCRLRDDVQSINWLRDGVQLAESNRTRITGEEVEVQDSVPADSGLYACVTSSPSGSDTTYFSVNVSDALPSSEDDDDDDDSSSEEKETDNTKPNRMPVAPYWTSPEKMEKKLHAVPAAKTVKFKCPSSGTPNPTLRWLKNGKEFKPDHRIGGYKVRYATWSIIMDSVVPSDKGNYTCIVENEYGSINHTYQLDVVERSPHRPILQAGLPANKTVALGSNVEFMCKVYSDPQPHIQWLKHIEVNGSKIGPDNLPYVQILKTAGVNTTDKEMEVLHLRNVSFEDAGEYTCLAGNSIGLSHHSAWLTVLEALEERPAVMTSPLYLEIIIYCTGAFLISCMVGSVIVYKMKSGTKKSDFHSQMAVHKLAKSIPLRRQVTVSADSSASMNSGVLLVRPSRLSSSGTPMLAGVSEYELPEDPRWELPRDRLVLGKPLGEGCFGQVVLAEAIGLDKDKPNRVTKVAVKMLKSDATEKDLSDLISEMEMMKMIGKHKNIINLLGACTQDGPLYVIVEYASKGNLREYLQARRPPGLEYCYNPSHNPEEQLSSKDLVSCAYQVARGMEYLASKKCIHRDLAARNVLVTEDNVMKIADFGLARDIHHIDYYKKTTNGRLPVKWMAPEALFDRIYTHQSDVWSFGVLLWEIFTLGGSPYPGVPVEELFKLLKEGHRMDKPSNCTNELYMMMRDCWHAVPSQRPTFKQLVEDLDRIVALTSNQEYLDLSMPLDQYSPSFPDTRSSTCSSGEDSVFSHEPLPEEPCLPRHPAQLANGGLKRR
How it was run: as §1

JAK2(JH1JH2) = target: T5, JAK2(JH1JH2) (Homo sapiens, UniProt O60674)
T5 construct: JAK2(JH1JH2)
How it was run: as §1

TNK2/ACK = target: T6, TNK2/ACK (Homo sapiens, UniProt Q07912)
T6 construct: AssayQuant Technologies, Inc. (contract laboratory that ran the panel)
How it was run: as §1

PKN1 = PKN1 (Homo sapiens, UniProt Q16512)
How it was run: as §1

SK2 = target: T7, SK2 (Homo sapiens, UniProt Q9H0K1)
T7 construct: AssayQuant Technologies, Inc. (contract assay)
How it was run: as §1

BRSK2 = target: T8, BRSK2 (Homo sapiens, UniProt Q8IWQ3)
T8 sequence (Q8IWQ3 1-736): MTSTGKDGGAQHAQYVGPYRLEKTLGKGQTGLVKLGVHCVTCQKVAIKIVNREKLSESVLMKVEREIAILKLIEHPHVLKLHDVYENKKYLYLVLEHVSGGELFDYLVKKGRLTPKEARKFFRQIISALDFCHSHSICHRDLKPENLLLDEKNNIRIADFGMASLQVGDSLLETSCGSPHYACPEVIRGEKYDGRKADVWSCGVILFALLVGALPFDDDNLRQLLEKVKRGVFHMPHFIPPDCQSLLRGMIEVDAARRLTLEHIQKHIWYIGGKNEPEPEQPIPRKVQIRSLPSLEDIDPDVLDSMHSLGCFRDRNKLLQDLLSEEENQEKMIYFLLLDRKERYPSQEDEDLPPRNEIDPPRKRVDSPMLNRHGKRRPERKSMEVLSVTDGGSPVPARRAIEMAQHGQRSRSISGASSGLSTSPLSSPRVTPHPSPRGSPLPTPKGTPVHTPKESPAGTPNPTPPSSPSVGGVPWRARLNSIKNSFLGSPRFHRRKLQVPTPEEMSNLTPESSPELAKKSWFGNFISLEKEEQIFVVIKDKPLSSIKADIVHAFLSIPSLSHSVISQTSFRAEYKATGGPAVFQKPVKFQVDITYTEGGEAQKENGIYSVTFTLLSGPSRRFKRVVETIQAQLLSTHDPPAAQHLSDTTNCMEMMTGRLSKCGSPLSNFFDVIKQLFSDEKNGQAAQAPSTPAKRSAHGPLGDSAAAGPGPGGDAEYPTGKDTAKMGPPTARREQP
How it was run: as §1

Chain of ERBB2/HER2 (P04626 23-1255): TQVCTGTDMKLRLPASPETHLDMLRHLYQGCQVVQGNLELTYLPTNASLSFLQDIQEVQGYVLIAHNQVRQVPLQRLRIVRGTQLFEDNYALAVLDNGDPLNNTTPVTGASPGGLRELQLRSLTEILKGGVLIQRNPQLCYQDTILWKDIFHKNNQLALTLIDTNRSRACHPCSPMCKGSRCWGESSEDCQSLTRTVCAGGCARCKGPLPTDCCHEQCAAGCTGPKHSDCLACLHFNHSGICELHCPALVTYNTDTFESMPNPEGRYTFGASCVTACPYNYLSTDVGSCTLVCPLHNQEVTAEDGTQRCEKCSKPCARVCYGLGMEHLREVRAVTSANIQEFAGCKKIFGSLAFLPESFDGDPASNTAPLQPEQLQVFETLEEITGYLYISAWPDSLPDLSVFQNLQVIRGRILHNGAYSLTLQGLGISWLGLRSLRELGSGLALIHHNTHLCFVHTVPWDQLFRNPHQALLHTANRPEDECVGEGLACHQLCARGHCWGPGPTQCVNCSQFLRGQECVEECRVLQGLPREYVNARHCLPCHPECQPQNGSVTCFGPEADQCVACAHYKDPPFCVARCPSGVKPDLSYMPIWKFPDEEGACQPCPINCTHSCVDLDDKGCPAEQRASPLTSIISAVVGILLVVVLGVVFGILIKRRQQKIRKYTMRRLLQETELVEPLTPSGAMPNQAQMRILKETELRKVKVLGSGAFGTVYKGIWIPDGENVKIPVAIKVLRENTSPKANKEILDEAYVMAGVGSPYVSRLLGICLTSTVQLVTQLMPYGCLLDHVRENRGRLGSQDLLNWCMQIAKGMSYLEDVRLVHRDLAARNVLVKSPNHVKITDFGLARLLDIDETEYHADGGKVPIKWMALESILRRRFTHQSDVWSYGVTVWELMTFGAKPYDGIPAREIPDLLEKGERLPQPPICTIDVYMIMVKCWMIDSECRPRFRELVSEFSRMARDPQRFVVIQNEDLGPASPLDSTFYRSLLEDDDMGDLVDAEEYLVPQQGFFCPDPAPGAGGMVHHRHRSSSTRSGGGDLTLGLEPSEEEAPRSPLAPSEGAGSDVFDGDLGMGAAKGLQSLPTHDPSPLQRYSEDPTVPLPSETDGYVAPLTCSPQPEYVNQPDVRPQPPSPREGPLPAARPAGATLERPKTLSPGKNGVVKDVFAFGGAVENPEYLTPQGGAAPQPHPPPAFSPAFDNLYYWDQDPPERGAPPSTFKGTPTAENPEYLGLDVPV

| Structure (SMILES) | inhibition at 1 µM (ERBB2/HER2) | inhibition at 1 µM (PDGFRB) | inhibition at 1 µM (MAPK7/ERK5) | inhibition at 1 µM (CLK4) | inhibition at 1 µM (HIPK3) | inhibition at 1 µM (MERTK/MER) | inhibition at 1 µM (AKT1) | inhibition at 1 µM (FGFR1) | inhibition at 1 µM (JAK2(JH1JH2)) | inhibition at 1 µM (TNK2/ACK) | inhibition at 1 µM (PKN1) | inhibition at 1 µM (SK2) | inhibition at 1 µM (BRSK2) |
| --- | --- | --- | --- | --- | --- | --- | --- | --- | --- | --- | --- | --- | --- |
| C=CC(=O)N1CCCC(c2c(F)cc(C(N)=O)c3[nH]c4c(c23)CCCCC4)C1 (single isomer, unassigned) [Compound 5-6] | -2.2% | -52.9% | -0.7% | 12.3% | -11.2% | -0.8% | 20% | 18.4% | 1% | -8.3% | 5.2% | -0.1% | -31.2% |
| C=CC(=O)N1CCC[C@@H](c2c(F)cc(C(N)=O)c3[nH]c4c(c23)CC2(CC4)CC2)C1 [Compound 6-2, (S)-5-(1-acryloylpiperidin-3-yl)-6-fluoro-1,2,4,9-tetrahydrospiro[carbazole-3,1′-cyclopropane]-8-carboxamide] | 11.9% | 23.2% | 9.4% | 6.5% | 30.6% | 12.4% | -17% | 6.6% | -9.4% | 13.4% | -10.2% | 7.7% | -5.7% |
| C=CC(=O)N1CCC[C@@H](c2c(F)cc(C(N)=O)c3[nH]c4c(c23)CCC4)C1 [Compound 10-2, (S)-8-(1-acryloylpiperidin-3-yl)-7-fluoro-1,2,3,4-tetrahydrocyclo-penta[b]indole-5-carboxamide] | 14.5% | 4.7% | -4.3% | 2.7% | 34.7% | 14.8% | -14.8% | 8.7% | -9.8% | 2% | 12% | 23.9% | 1.8% |
